We go through three compounds from patent publication US10844052B2, “LLS compounds for treatment of cancer” (THE REGENTS OF THE UNIVERSITY OF CALIFORNIA, priority 2016, dated 2020).

Broadly, the viability is the share of living cells, or the viability signal relative to a control. Lower therefore signals more harm to the cells. As a reminder, the IC50 is the midpoint of a concentration-inhibition curve.

Data set [1] is described as follows: Combination of LLS30 with Enzalutamide. Format: cell-based.
Data set [2] relates to PC3 prostate cancer cells. The data set is described as follows: Cell viability of prostate cancer PC3 cells after 72 hours treatment. The format is cell-based. Conditions: Homo sapiens. On the procedure: Effects of compounds LLS42-LLS80 on the viability of PC3 prostate cancer cells after 72 hours of treatment are shown in Table 2 below: […]
Data set [3] relates to sNF96.2 malignant peripheral nerve sheath tumor (MPNST) cells. The data set is described as follows: Cytotoxicity against sNF96.2 MPNST cells. Format: cell-based. On the procedure:
(§1) The biochemical and biological effects of LLS30 on sNF96.2 and sNF2.2 malignant peripheral nerve sheath tumor (MPNST) cells were evaluated.

Data set [4] deals with ERK phosphorylation. The data set is described as follows: Phosphorylation of ERK / MEK/ERK pathway in MPNST cells. Format: cell-based. On the procedure:
(b) LLS30 exerts death on MPNST cells.
as §1

In data set [5] the test system is SKOV3. The data set is described as follows: Anti-cancer activity against ovarian cancer cells SKOV3 (cell killing in solution / in vitro cell proliferation). Format: cell-based. On the procedure:
(§2) Biotinylated LLS2 was synthesized in solution and loaded it onto a streptavidin-coated plate. The biotinylated LLS2 immobilized on the plate killed approximately 21% of SKOV3 ovarian cancer cells at 100 μM loading, 16% at 50 μM and 14% at 25 μM (FIG. 4). The killing effect of the LLS2 compound was also tested in solution. […] In addition, LLS2 can kill pancreatic cancer cell line XPA3, prostate cancer cell line PC3, colon cancer cell line HT29, breast cancer cell line MCF7 and lung cancer cell line A549 (FIG. 4).

Data set [6] deals with PC3. The data set is described as follows: In vitro cell proliferation / killing assay on PC3 prostate cancer cells. The format is cell-based. On the procedure:
as §2

For data set [7], the system named is sNF2.2 malignant peripheral nerve sheath tumor (MPNST) cells. The experiment in a line: Cytotoxicity and PTX combination on sNF2.2 MPNST cells. Format: cell-based. On the procedure: as §1
Data set [8] has as its system 22RV1 prostate cancer cells. The experiment in a line: Cell viability of prostate cancer 22RV1 cells after 72 hours treatment. The format is cell-based. Conditions: Homo sapiens.
Data set [9] has as its system PC3 tumor. The data set is described as follows: In vivo efficacy study of LLS30 on PC3 tumor.
The test system of data set [10] is prostate cancer PC3 cancer cells.
Data set [11] concerns N-Ras(Q61D). The data set is described as follows: N-Ras(Q61D) localization. Format: cell-based. From the text: (§3) (b) Once activated by EGF, H-Ras will be partially trafficked to the plasma membrane leading to the activation of Erk pathway. […] (c) Quantification of membrane associated H-Ras (active form) by immunoblot analysis after treatment with buffer (−) or LLS2 (+), showing that LLS2 was able to lower the level of membrane-associated H-Ras. (d) LLS2 also miscolocalized the EGF-stimulated K-Ras(G12V) but not N-Ras(Q61D).
(§4) LLS2 treatment also miscolocalizes the EGF-stimulated K-Ras(G12V), whereas the localization of EGF-stimulated N-Ras(Q61D) is not changed (FIG. 9d). […] Without being bound to any particular theory, this implies that LLS2 induces cell death through suppression of the RAS-ERK pathway.

Data set [12] has as its system XPA3. The data set is described as follows: Cell killing by soluble LLS2, pancreatic cancer cell line XPA3. Format: cell-based. On the procedure: as §2
In data set [13] the test system is MCF7. The experiment in a line: Cell killing by soluble LLS2, breast cancer cell line MCF7. Format: cell-based. On the procedure:
as §2

The test system of data set [14] is phospho-MEK and phospho-ERK. The experiment in a line: Expression level of phospho-MEK and phospho-ERK after LLS2. The format is cell-based. Conditions: treatment for 2 hours.
Description: as §3, §4

For data set [15], the system named is K-Ras(G12V). The data set is described as follows: K-Ras(G12V) localization and Ras activity assay. Format: cell-based.
Description: as §3, §4

The subject of data set [16] is A549. The data set is described as follows: Cell killing by soluble LLS2, lung cancer cell line A549. Format: cell-based. On the procedure: as §2
For data set [17], the system named is SKOV3 xenograft tumors. The data set is described as follows: SKOV3 xenograft in nude mice, LLS2 alone or with paclitaxel. Format: in vivo.
Description: Briefly, 2.5×10^6 SKOV3 cells were subcutaneously injected to the right side of the dorsal flank of the female congenital athymic BALB/c nude mice. The tumors were allowed to grow to about 100 mm^3.
Then, mice were randomly divided into control and treatment groups (n=5). Mice were given a daily I.V. administration for 5 successive days.
SKOV3 ovarian cancer cells were subcutaneously injected on the dorsal flanks of mice.
Data set [18] concerns Human umbilical vascular endothelial cells (HUVECs). The data set is described as follows: HUVEC tube-formation assay on Matrigel-coated plates. The format is cell-based. On the procedure: Human umbilical vascular endothelial cells (HUVECs) we used for tube-formation assays on Matrigel-coated plates as shown in FIG. 10. The expression level of secreted gal-1 in 6 different cancer cell lines was determined using ELISA assay.

Data set [19] relates to HT29. The experiment in a line: Cell killing by soluble LLS2, colon cancer cell line HT29. Format: cell-based. On the procedure:
as §2

Data set [20] deals with GFP-H-Ras(12V). The experiment in a line: H-Ras localization (real time confocal) and membrane-associated H-Ras immunoblot. Format: cell-based.
Description: as §3, §4

Data set [21] addresses T1, galectin-1 (Homo sapiens, UniProt P09382).
T1 construct: endogenous in cells
The experiment in a line: Pull-down with biotinylated LLS2, LC MS/MS and anti-galectin-1 immunoblot. Format: binding. Conditions: biotinylated LLS2, cell membrane protein preparation. On the procedure:
LLS2 was biotinylated, incubated with a cell membrane protein preparation, and bound proteins were pulled down with immobilized streptavidin resin. The bound proteins were eluted and subjected to identification by LC MS/MS. The MS result identified galectin-1 as the putative target protein of LLS2 (FIG. 8a). The identity of galectin-1 as the target protein of LLS2 was confirmed by immunoblot analysis of proteins eluted from (i) blank streptavidin-beads, (ii) biotin-LLS2/streptavidin beads, and (iii) biotinylated unrelated small molecule/streptavidin beads, using anti-galectin-1 antibody as the western blot probe (FIG. 8b).
Background: In western blotting, separated proteins are transferred to a membrane and probed.

Data set [22] deals with SKOV3 cells. The experiment in a line: In vitro combination of LLS2 with paclitaxel on SKOV3 cells. The format is cell-based.
Description: C.I.<0.9 indicates synergism, C.I.=0.9-1.10 indicates additive interaction, and C.I.>1.1 indicates antagonism.
The synergistic effects of LLS2 with current chemotherapeutic drugs including docetaxel, paclitaxel, 5-Fu, oxaliplatin, carboplatin, doxorubicin and gemcitabine were examined in vitro.
[23] abbreviates: Homo sapiens, SK-OV-3, ovarian cancer cells SKOV3.

T1 sequence (P09382 whole entry): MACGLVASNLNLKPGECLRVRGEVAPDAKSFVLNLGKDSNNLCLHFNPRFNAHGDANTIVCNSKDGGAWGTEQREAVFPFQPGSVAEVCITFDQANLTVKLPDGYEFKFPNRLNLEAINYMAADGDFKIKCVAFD

Regarding `NC(=O)CC(NCc1ccc(Cl)c(Cl)c1)c1ccc2c(c1)nc(-c1ccc(N(CCO)CCO)cc1)n2Cc1ccc(Cl)c(Cl)c1` (centres unmarked) [LLS30, 3-(2-(4-(bis(2-hydroxyethyl)amino)phenyl)-1-(3,4-dichlorobenzyl)-1H-benzo[d]imidazol-5-yl)-3-((3,4-dichlorobenzyl)amino)propanamide], the “anti-cancer effect in combination with Enzalutamide” value in data set [1] is “synergistic anti-cancer effect”. The viability at 2.5 µM in [2] (PC-3, 2.5 μM) turned out to be 100%; in data set [8] (2.5 μM), 47%. For the same compound, the viability at 5 µM in [2] (PC-3, 5 μM) is 95%; in [8] (5 μM), 3%. Besides, the viability at 10 µM in data set [2] (PC-3, 10 μM) amounted to 73%; in data set [8] (10 μM) it was 0%. The viability at 20 µM in data set [2] (PC-3, 20 μM) was 10%. The IC50 in data set [3] stood at 16 µM; in data set [5] (setting [23]), 10.2 µM; in data set [6] (Homo sapiens, PC-3), 9.2 µM; in data set [7] it was 26 µM. In [4] (2 μM, MPNST cells (FIG. 12 legend)), the MEK/ERK pathway result was “suppresses”. For the same compound, the “Phosphorylation of ERK” value in data set [4] (24 hrs treatment, 25 μM, MPNST cells) is “totally suppressed”. The “potency relative to LLS2” value in [5] (in vitro cell proliferation assays) is recorded as “about 2 fold”. The “C.I. (combination index) with PTX” value in data set [7] (LLS30 with PTX) is 0.1. Further, the “growth of PC3 tumor” value in [9] (10 mg/kg, i.v. q3d×4) is “significantly suppressed”. For the same compound, the Ki-67 in tumor result in data set [9] (LLS30-treated tumor) is “down-regulated”. For the same compound, in data set [9] (LLS30-treated tumor), the “cleaved caspase-3 in tumor” value is “more cleaved caspase-3 positive cells”. Besides, in data set [9] (LLS30 with PTX, i.v. q3d×4), the “PC3 tumor response, combination with PTX” value was “tumor regression”. Besides, the “CBC, platelets, liver function tests and renal panel” value in [9] (after 4 courses of treatment) is listed as “remained within normal limits”. Also, in data set [9] (necrotic cells), the “histological analysis of the resected tumor” value is listed as “many necrotic cells were present”.

With `CC(=O)OCCN(CCOC(C)=O)c1ccc(-c2nc3cc(C(CC(N)=O)NC(=O)[C@@H](N)Cc4ccc(Cl)c(Cl)c4)ccc3n2Cc2ccc(F)c(F)c2)cc1` (stereo partly drawn) [LLS2, ((4-(5-(3-amino-1-((S)-2-amino-3-(3,4-dichlorophenyl)propanamido)-3-oxopropyl)-1-(3,4-difluorobenzyl)-1H-benzo[d]imidazol-2-yl)phenyl)azanediyl)bis(ethane-2,1-diyl) Diacetate], the “anti-proliferation effect of combined treatment with paclitaxel” value is reported as “much stronger anti-proliferation effects” in [10] (PC3, LLS2 + paclitaxel) and “much stronger anti-proliferation effects” in data set [22] (SKOV3, LLS2 + paclitaxel). Besides, the “localization of EGF-stimulated N-Ras(Q61D)” value in data set [11] is “not changed”. The cell killing result in data set [12], in data set [13], in data set [16], in [6] (prostate cancer cell line PC3) and in [19] was “can kill” in each case. Also, in data set [14], the “expression level of phospho-MEK and phospho-ERK” value is “down-regulated”. The “localization of EGF-stimulated K-Ras(G12V)” value in [15] was “miscolocalizes”. Also, the “EGF-stimulated levels of K-Ras-GTP” value in [15] (Ras activity assays) is on record as “decreases”. In addition, the IC50 in [5] (setting [23]) was 15.7 µM; in data set [5] (ovarian cancer cells SKOV3) it was 18.7 µM. The “tolerability (body weight)” value in data set [17] (LLS2/paclitaxel combination regimen, nude mice) was “tolerable and without significant side effects”. Besides, in data set [17] (LLS2 alone, daily I.V. for 5 successive days, SKOV3 xenograft), the “tumor size and weight” value is recorded as “smaller tumor size”. In addition, the tumor growth result in data set [17] (combination LLS2/paclitaxel compared to either alone, SKOV3 xenograft) is “significant suppression of tumor growth”. Besides, the “angiogenic effect of added gal-1” value in data set [18] was “inhibited”. Also, the “tube-formation activity of PC3 conditioned medium” value in data set [18] (10 μM) was “neutralized”. In data set [20] (25 μM, 15 mins treatment, EGF-activated), the “membrane-localized H-Ras” value was “loss of membrane-localized H-Ras”. Moreover, the “localization of EGF-stimulated GFP-H-Ras(12V)” value in [20] (25 μM, 30 min) was “mis-localizes to intracellular compartments”. Further, the “membrane-associated H-Ras” value in data set [20] (LLS2-treated vs non-treated MDCK cells) is recorded as “significant down-expression of H-Ras”. In addition, the “target protein identified by pull-down / immunoblot” value in [21] is reported as “target protein of LLS2 was indeed galectin-1”. Also, the “apoptosis after combined LLS2/paclitaxel treatment” value in [22] (SKOV3 cells, 24 hours) is given as “Increased apoptosis”.

For `CC(=O)O[C@H]1C(=O)[C@@]2(C)[C@H]([C@H](OC(=O)c3ccccc3)[C@]3(O)C[C@H](OC(=O)[C@H](O)[C@@H](NC(=O)c4ccccc4)c4ccccc4)C(C)=C1C3(C)C)[C@]1(OC(C)=O)CO[C@@H]1C[C@@H]2O` [Paclitaxel, reference compound], the “cytotoxicity, single agent” value was “moderate cytotoxicity” in [10] and “little effect” in [22] (SKOV3 cells, at particular concentrations).
